Values quoted from earlier work in US20230110485A1, “MULTI-LAYER PARTICLES OF FUNCTIONAL INGREDIENTS AND METHODS OF MAKING THE SAME” (Nulixir Inc., priority 2021, published 2023).

How the values were obtained:
[1] = water and n-octanol; categorization at pH = 7 unless stated otherwise

In the case of `COc1cc2c(c(OC)c1OC)-c1c(cc3c(c1OC)OCO3)CC(C)C(C)C2` (single isomer, unassigned; (-)) [(-)-schisandrin B], the logP [1] is listed as roughly 4.

For `COc1cc(/C=C/c2ccccc2)oc(=O)c1` [5,6-dehydrokawain], the logP [1] is given as roughly 2.9.

For `O=CC=Cc1ccccc1` [Cinnamaldehyde], the “inhibitory activity against fungi” value (many strains of fungi) is given as “strong inhibitory activity”.

In the case of `COc1cc2c(c(OC)c1OC)-c1c(cc(OC)c(OC)c1OC)C[C@](C)(O)[C@@H](C)C2` [schisandrol A], the logP [1] is given as roughly 3.4.

In the case of (-)-schisandrin C, the logP [1] is given as roughly 3.5.
